From ChEMBL document CHEMBL3217445, “Optimising pharmacokinetics of glucokinase activators with matched triplicate design sets the discovery of AZD3651 and AZD9485” (Medchemcomm, 2013)
pEC50, pIC50: −log10 of the molar value. In brackets after ≈: the same amount, converted by molar mass. Activity calls are given as the source filed them. No cut-off for these calls is given here.

Assays:
Hexokinase-4 = target: T1, Hexokinase-4 (Homo sapiens, UniProt P35557); assay: Activation of glucokinase (unknown origin); details: for EC50: read-out: pEC50 (converted); for pEC50: read-out: EC50
T1 sequence (P35557 whole entry): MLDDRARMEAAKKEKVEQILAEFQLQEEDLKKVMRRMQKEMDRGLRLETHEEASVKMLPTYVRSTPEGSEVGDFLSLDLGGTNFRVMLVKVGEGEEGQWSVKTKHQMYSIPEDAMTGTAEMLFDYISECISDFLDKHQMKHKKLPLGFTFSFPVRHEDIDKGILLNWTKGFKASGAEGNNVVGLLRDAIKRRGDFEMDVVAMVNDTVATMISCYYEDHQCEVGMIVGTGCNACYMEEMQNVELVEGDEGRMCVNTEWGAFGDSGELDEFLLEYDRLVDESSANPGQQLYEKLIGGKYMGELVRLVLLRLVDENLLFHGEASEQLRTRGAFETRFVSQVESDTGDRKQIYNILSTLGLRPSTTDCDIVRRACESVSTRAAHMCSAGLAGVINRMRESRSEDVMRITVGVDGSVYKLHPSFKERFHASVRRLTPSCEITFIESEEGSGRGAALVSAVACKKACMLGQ

[1] = Octanol-buffer partition coefficient, log D of the compound at pH 7.4 after 30 mins by shake flask method; type: physicochemical
[2] = Clearance in rat; type: ADME, organism-based; details: in vivo
Rattus norvegicus [3] = species on record: Rattus norvegicus; assay: Unbound clearance in rat; type: ADME, organism-based; details: in vivo
[4] = Half life in rat plasma; type: ADME, cell-free
[5] = target: Voltage-gated inwardly rectifying potassium channel KCNH2 (Homo sapiens, UniProt Q12809); assay: Inhibition of human ERG by electrophysiological analysis
Voltage-gated inwardly rectifying potassium channel KCNH2, sequence (Q12809 whole entry): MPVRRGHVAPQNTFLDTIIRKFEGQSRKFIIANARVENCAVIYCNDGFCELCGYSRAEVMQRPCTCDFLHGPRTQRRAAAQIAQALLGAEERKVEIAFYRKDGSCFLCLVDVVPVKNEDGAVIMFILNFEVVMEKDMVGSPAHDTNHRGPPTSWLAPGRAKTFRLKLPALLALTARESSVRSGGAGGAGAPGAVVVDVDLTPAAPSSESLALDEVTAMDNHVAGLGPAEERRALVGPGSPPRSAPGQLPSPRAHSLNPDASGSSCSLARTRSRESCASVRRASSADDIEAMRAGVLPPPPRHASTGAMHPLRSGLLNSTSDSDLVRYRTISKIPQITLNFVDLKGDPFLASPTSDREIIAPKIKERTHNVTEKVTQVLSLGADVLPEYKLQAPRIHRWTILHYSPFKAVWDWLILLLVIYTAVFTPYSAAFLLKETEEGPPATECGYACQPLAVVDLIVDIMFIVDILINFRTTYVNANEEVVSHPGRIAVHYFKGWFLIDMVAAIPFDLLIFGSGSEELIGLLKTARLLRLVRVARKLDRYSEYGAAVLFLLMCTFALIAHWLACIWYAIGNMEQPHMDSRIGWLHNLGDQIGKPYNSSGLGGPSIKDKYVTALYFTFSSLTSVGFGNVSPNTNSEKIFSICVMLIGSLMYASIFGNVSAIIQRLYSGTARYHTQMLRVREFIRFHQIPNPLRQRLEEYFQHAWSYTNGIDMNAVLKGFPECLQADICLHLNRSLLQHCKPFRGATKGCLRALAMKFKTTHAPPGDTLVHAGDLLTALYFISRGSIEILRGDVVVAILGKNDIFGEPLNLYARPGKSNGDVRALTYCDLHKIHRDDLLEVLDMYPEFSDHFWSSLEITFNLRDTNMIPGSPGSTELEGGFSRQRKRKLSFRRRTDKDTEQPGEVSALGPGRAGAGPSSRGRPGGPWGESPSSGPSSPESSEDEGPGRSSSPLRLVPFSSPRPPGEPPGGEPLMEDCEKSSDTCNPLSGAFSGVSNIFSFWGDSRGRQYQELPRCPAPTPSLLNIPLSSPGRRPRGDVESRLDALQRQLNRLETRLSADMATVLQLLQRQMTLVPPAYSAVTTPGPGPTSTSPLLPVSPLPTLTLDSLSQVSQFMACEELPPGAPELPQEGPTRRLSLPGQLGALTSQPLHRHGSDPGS

[6] = Half life at pH 6; type: physicochemical; details: buffer
Hepatocyte = assay: Intrinsic clearance in rat hepatocytes measured per […] cells; type: ADME, cell-based
[7] = Aqueous solubility in PBS buffer at pH 7.4 after 24 hrs by LC-UV analysis; type: physicochemical
[8] = Apparent permeability from apical to basolateral side in MDCK cells; type: ADME, cell-based, Canis lupus familiaris; details: dog
[9] = Volume of distribution at steady state in rat; type: ADME, organism-based; details: in vivo, read-out: Vdss
[10] = Oral bioavailability in rat; type: ADME, organism-based; details: in vivo
[11] = Clearance in dog; type: ADME, organism-based, Canis lupus familiaris; details: in vivo
Canis familiaris = species on record: Canis familiaris; assay: Unbound clearance in dog; type: ADME, organism-based, Canis lupus familiaris; details: in vivo
[12] = Volume of distribution at steady state in dog; type: ADME, organism-based, Canis lupus familiaris; details: in vivo, read-out: Vdss
[13] = Oral bioavailability in dog; type: ADME, organism-based, Canis lupus familiaris; details: in vivo
Rattus norvegicus [14] = assay: Glucose lowering activity in Zucker rat at 3 mg/kg, po after 24 hrs; type: functional, organism-based; set-up: dose 3 mg/kg

Row | Structure (SMILES) | EC50 (Hexokinase-4) [nM] | logD at 0.5 h [1] | clearance [2] [mL/min/kg] | CL free (Rattus norvegicus [3]) [mL/min/kg] | half-life [4] [min] | pIC50 [5] | also measured
1 | O=C(Nc1ccc(Cl)cn1)[C@H](CN1CC(O)C1)Oc1ncnc2c1cnn2-c1ccccc1Cl | 63.1 | 3.1 | 40 | 310 | 24 | 5.00 | –
2 | C[C@H](CO)OC[C@H](Oc1ncnc2c1cnn2-c1ncccc1Cl)C(=O)Nc1ccc(C#N)cn1 | – | 1.5 | 14 | 29 | 106 | – | half-life [6]: > 23 days
3 | O=C(Nc1ccc(F)cn1)[C@H](COCCO)Oc1ncnc2c1cnn2-c1c(F)cccc1Cl | 200 | 2.5 | 15 | 110 | – | 4.50 | –
4 | N#Cc1ccc(NC(=O)[C@H](COCCO)Oc2ncnc3c2cnn3-c2ncccc2Cl)nc1 | 1580 | – | 13 | 28 | 115 | – | –
5 | O=C(Nc1ccc(Cl)cn1)[C@H](COCCO)Oc1ncnc2c1cnn2-c1ccccc1Cl | 200 | 3.1 | 11 | 120 | 86 | – | –
6 | CC(C)OC[C@H](Oc1ncnc2c1cnn2-c1ncccc1Cl)C(=O)Nc1ccc(F)cn1 | – | – | 130 | 600 | 7 | – | half-life [6]: > 23 days
7 | N#Cc1cccc(Cl)c1-n1ncc2c(O[C@@H](COCCO)C(=O)Nc3ccc(F)cn3)ncnc21 | 501 | 2 | 19 | 140 | – | 4.20 | –
8 | CCOC[C@H](Oc1ncnc2c1cnn2-c1ncccc1Cl)C(=O)Nc1ccc(C)cn1 | – | – | – | 340 | 37 | – | CLint (Hepatocyte): 12 µL/min/1e6 cells
9 | C[C@@H](CO)OC[C@H](Oc1ncnc2c1cnn2-c1ncccc1Cl)C(=O)Nc1ccc(Cl)cn1 | 3160 | 2.4 | – | – | 12 | – | –
10 | Cc1ccc(NC(=O)[C@H](COC2CCC2)Oc2ncnc3c2cnn3-c2ncccc2Cl)nc1 | – | – | – | 1500 | 10 | – | CLint (Hepatocyte): 130 µL/min/1e6 cells
11 | O=C(Nc1ccc(F)cn1)[C@H](COCCO)Oc1ncnc2c1cnn2-c1c(Cl)cccc1Cl | 126 | 2.7 | 15 | 120 | – | 4.70 | –
12 | O=C(Nc1ccc(F)cn1)[C@H](COCCO)Oc1ncnc2c1cnn2-c1ccccc1Cl | 631 | 2.4 | 45 | 220 | – | 4.40 | –
13 | Cc1ccc(NC(=O)[C@H](CCO)Oc2ncnc3c2cnn3-c2ncccc2Cl)nc1 | 200 | 1.8 | 11 | – | > 300 | – | –
14 | COC[C@H](Oc1ncnc2c1cnn2-c1ncccc1Cl)C(=O)Nc1ccc(C)cn1 | – | – | – | – | > 300 | – | CLint (Hepatocyte): < 2 µL/min/1e6 cells
15 | C[C@H](CO)OC[C@H](Oc1ncnc2c1cnn2-c1ncccc1Cl)C(=O)Nc1ccc(F)cn1 | 794 | 1.7 | 43 | 98 | 16 | < 4.00 | half-life [6]: > 23 days
16 | O=C(Nc1ccccn1)[C@H](CN1CC(O)C1)Oc1ncnc2c1cnn2-c1c(F)cccc1Cl | – | 2.3 | 81 | 250 | – | – | –
17 | O=C(Nc1ccc(Cl)cn1)[C@H](COCCO)Oc1ncnc2c1cnn2-c1ncccc1Cl | 501 | 2.1 | 15 | 70 | 31 | 4.30 | –
18 | Cc1cnc(NC(=O)[C@H](CO[C@H](C)CO)Oc2ncnc3c2cnn3-c2c(Cl)cccc2C#N)cn1 | – | 1.9 | 18 | 39 | – | < 4.00 | pEC50 (Hexokinase-4): 7.11; solubility at 24 h [7]: > 50 µM; Papp A→B [8]: 7.8 ×10⁻⁶ cm/s; Vd [9]: 1.5 L/kg; bioavailability [10]: 100%; clearance [11]: 18 mL/min/kg; CL free (Canis familiaris): 49 mL/min/kg; Vd [12]: 0.9 L/kg; bioavailability [13]: 43%

Row | Structure (SMILES) | EC50 (Hexokinase-4) [nM] | logD at 0.5 h [1] | clearance [2] [mL/min/kg] | CL free (Rattus norvegicus [3]) [mL/min/kg] | half-life [4] [min] | pIC50 [5] | also measured
19 | N#Cc1ccc(NC(=O)[C@H](CN2CC(O)C2)Oc2ncnc3c2cnn3-c2ccccc2Cl)nc1 | 200 | 2.1 | 30 | 110 | – | 5.00 | –
20 | O=C(Nc1ccc(F)cn1)[C@H](CN1CC(O)C1)Oc1ncnc2c1cnn2-c1ncccc1Cl | 316 | 1.3 | 21 | 31 | 62 | < 4.00 | –
21 | Cc1cnc(NC(=O)[C@H](CN2CC(O)C2)Oc2ncnc3c2cnn3-c2c(Cl)cccc2Cl)cn1 | – | 2.3 | 225 | 74 | – | 4.21 | pEC50 (Hexokinase-4): 7.02; solubility at 24 h [7]: > 750 µM; Papp A→B [8]: 3.5 ×10⁻⁶ cm/s; Vd [9]: 1.2 L/kg; bioavailability [10]: 38%; clearance [11]: 18 mL/min/kg; CL free (Canis familiaris): 60 mL/min/kg; Vd [12]: 1.1 L/kg; bioavailability [13]: 87%
22 | CC(C)OC[C@H](Oc1ncnc2c1cnn2-c1ncccc1Cl)C(=O)Nc1ccc(C#N)cn1 | – | – | 21 | 81 | 22 | – | half-life [6]: > 23 days
23 | N#Cc1ccc(NC(=O)[C@H](CN2CC(O)C2)Oc2ncnc3c2cnn3-c2c(Cl)cccc2Cl)nc1 | 251 | 2.6 | 64 | 240 | – | – | –
24 | O=C(Nc1ccc(F)cn1)[C@H](CN1CC(O)C1)Oc1ncnc2c1cnn2-c1c(F)cccc1Cl | 50.1 | 2.3 | 38 | 190 | – | 4.60 | –
25 | O=C(Nc1ccc(F)cn1)[C@H](CN1CC(O)C1)Oc1ncnc2c1cnn2-c1c(Cl)cccc1Cl | – | 2.7 | 42 | 320 | – | – | pEC50 (Hexokinase-4): 7.31; solubility at 24 h [7]: 80 µM (≈ 41.5 µg/mL); Papp A→B [8]: 7.3 ×10⁻⁶ cm/s; Vd [9]: 1.7 L/kg; bioavailability [10]: 28%; clearance [11]: 30 mL/min/kg; CL free (Canis familiaris): 210 mL/min/kg; Vd [12]: 1.1 L/kg; bioavailability [13]: 32%; Activity (Rattus norvegicus [14]): Active
26 | O=C(Nc1ccc(Cl)cn1)[C@H](CN1CC(O)C1)Oc1ncnc2c1cnn2-c1ncccc1Cl | 316 | 2 | 38 | 140 | 45 | 4.30 | –
27 | O=C(Nc1ccccn1)[C@H](CN1CC(O)C1)Oc1ncnc2c1cnn2-c1ccccc1Cl | 200 | 2 | 170 | 420 | – | < 4.00 | –
28 | C[C@@H](CO)OC[C@H](Oc1ncnc2c1cnn2-c1ncccc1Cl)C(=O)Nc1ccc(F)cn1 | 2510 | 1.7 | 38 | 76 | 1 | < 4.00 | –
29 | N#Cc1ccc(NC(=O)[C@H](CN2CC(O)C2)Oc2ncnc3c2cnn3-c2c(Cl)cccc2C#N)nc1 | 501 | 1.9 | – | – | – | 5.10 | –
30 | Cc1ccc(NC(=O)[C@H](COC(C)C)Oc2ncnc3c2cnn3-c2ncccc2Cl)nc1 | – | – | – | 390 | 17 | – | CLint (Hepatocyte): 66 µL/min/1e6 cells
31 | N#Cc1cccc(Cl)c1-n1ncc2c(O[C@@H](CN3CC(O)C3)C(=O)Nc3ccc(F)cn3)ncnc21 | 200 | 2 | 32 | 260 | – | – | –
32 | O=C(Nc1ccc(F)cn1)[C@H](CN1CC(O)C1)Oc1ncnc2c1cnn2-c1ccccc1Cl | – | 2.3 | 31 | 90 | – | 4.44 | pEC50 (Hexokinase-4): 7.11; solubility at 24 h [7]: > 750 µM; Papp A→B [8]: 9.8 ×10⁻⁶ cm/s; Vd [9]: 1.5 L/kg; bioavailability [10]: 75%; clearance [11]: 51 mL/min/kg; CL free (Canis familiaris): 170 mL/min/kg; Vd [12]: 1.5 L/kg; bioavailability [13]: 12%; Activity (Rattus norvegicus [14]): Active
33 | CC(C)OC[C@H](Oc1ncnc2c1cnn2-c1ccccc1Cl)C(=O)Nc1ccc(Cl)cn1 | – | > 4.3 | 33 | 1500 | 19 | 4.80 | –
34 | C[C@H](CO)OC[C@H](Oc1ncnc2c1cnn2-c1ncccc1Cl)C(=O)Nc1ccc(Cl)cn1 | 398 | 2.3 | 50 | 190 | 19 | – | half-life [6]: > 23 days
35 | CC(C)OC[C@H](Oc1ncnc2c1cnn2-c1ncccc1Cl)C(=O)Nc1ccc(Cl)cn1 | – | – | 11 | 120 | 14 | – | half-life [6]: > 23 days
36 | C[C@@H](CO)OC[C@H](Oc1ncnc2c1cnn2-c1ncccc1Cl)C(=O)Nc1ccc(C#N)cn1 | > 100000 | 1.5 | – | – | 115 | – | –
